Reference: PMC4621912, “Anticancer activity of MPT0G157, a derivative of indolylbenzenesulfonamide, inhibits tumor growth and angiogenesis” (Oncotarget, 2015)
Read-outs that look alike come from different tables or passages of the source. Each block holds one molecule with its values, some of them ahead of it.

Key:
[1] = target: T1, recombinant HDAC1 (Homo sapiens, UniProt Q13547); assay: Inhibition of recombinant HDAC enzyme activity (fluorogenic kit), HDAC1; type: biochemical; conditions: mean ± SEM, read-out: IC50 HDAC1 (Class I)
T1 construct: purchased BPS Bioscience Corp
T1 sequence (Q13547 whole entry): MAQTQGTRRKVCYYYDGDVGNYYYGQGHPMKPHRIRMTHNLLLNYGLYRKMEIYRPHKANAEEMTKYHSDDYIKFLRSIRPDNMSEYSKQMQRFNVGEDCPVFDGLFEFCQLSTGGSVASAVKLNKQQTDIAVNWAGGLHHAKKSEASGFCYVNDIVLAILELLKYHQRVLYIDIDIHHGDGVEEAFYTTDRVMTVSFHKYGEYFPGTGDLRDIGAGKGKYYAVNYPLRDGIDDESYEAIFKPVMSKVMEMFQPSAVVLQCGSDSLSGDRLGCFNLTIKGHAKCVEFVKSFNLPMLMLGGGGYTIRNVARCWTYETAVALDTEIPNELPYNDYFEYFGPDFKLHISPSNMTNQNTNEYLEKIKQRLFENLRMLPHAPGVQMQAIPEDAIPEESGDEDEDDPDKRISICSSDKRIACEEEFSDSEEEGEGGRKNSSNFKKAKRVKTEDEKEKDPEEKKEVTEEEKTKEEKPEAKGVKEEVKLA
Source text: (§1) Fluorogenic HDAC assay kits (BPS Bioscience Corp., San Diego, CA, USA) were used to assess the ability of HDAC inhibitors to inhibit deacetylation of lysine residues on the substrate by recombinant HDAC1, 2, 3, 4, 6, or 8 according to the manufacturer's instructions.

[2] = target: T2, recombinant HDAC4 (Homo sapiens, UniProt P56524); assay: Inhibition of recombinant HDAC enzyme activity (fluorogenic kit), HDAC4; type: biochemical; conditions: mean ± SEM, read-out: IC50 HDAC4 (Class IIa)
T2 construct: purchased BPS Bioscience Corp
T2 sequence (P56524 627-1084 limits assumed): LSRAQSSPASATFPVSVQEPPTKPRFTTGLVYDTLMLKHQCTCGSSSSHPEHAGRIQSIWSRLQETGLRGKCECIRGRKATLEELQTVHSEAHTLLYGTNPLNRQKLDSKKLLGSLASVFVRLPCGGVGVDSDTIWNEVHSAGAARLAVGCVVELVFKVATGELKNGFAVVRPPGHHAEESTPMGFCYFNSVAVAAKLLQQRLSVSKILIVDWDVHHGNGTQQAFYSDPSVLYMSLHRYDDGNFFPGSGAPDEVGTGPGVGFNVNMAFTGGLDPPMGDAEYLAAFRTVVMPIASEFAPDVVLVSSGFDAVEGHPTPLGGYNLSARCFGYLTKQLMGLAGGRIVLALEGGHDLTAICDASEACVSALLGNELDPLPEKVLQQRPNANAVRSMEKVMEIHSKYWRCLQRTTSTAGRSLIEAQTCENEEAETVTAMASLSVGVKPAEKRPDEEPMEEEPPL
Source text: as §1

[3] = tested on: HCT116 cells; assay: SRB cell proliferation assay, HCT116; type: cell-based; conditions: Homo sapiens, read-out: GI50, HCT116
Method: (§2) Results are shown as mean ± SEM from three independent experiments. […] Cells (1 × 10^4) in 100 μL of medium in 96-well plates were incubated with vehicle (control) or vehicle with test compound for 12 or 24 h. After various treatments, 1 mg/mL of MTT was added and the plates were incubated at 37°C for an additional 2 h, then the cells were pelleted and lysed in 100 μL of dimethyl sulfoxide, and the absorbance at 550 nm was measured on a microplate reader. Cell proliferation was measured by the SRB assay. Cells (1 × 10^4) were incubated for 48 h with the indicated concentrations of test compounds, then were fixed with 10% trichloroacetic acid, stained for 30 min with SRB (0.4% in 1% acetic acid), and washed repeatedly with 1% acetic acid. Protein-bound dye was dissolved in 10 mM Tris base solution and the optical density at 510 nm measured.

[4] = target: T3, recombinant HDAC3 (Homo sapiens, UniProt O15379); assay: Inhibition of recombinant HDAC enzyme activity (fluorogenic kit), HDAC3; type: biochemical; conditions: mean ± SEM, read-out: IC50 HDAC3 (Class I)
T3 construct: purchased BPS Bioscience Corp
T3 sequence (O15379 whole entry): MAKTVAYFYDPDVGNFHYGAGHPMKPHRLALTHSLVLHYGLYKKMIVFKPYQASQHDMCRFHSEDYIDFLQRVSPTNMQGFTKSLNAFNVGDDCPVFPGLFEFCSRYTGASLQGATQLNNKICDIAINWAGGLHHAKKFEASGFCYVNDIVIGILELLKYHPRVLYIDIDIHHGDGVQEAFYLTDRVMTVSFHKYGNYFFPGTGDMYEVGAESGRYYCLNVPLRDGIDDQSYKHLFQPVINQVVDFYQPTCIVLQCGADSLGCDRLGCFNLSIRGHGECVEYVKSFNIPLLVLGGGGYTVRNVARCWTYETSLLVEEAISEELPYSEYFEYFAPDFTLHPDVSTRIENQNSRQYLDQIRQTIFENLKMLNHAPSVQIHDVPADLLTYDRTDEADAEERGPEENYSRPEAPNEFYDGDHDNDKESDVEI
T3 sequence (Q9Y618 395-489 partner limits assumed): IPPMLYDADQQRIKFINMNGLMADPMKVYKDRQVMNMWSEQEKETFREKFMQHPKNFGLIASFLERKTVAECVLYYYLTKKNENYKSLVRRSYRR
Source text: as §1

[5] = tested on: A549 cells; assay: SRB cell proliferation assay, A549; type: cell-based; conditions: Homo sapiens, read-out: GI50, A549
Method: as §2

[6] = tested on: total HDAC activity in HCT116 cells; assay: Total HDAC enzymatic activity assay in treated HCT116 cells; type: cell-based; conditions: Homo sapiens, read-out: HDAC inhibitory IC50 in HCT116 cells (total HDAC enzyme activity)
Method: B. HCT116 cells (1 × 10^6) treated as explained in (A), whole-cell extracts were subjected to western blotting for the indicated proteins. Quantitative analysis of acetyl-histone H3 C. and acetyl-α-tubulin D. expression in western blot were determined by ImageQuant (Molecular Dynamics, USA). E. Immunohistochemical analysis of the HDAC1, 2 and 6 expression of a tissue microarray containing normal colon tissues and tumor tissue derived from patients with colon adenocarcinoma. Scale bars are indicated. […] Total cell lysates were collected and the total HDAC enzyme activity was analyzed using HDAC activity fluorometric assay kit (Cat No. K330–100; BioVision, Milpitax, CA, USA).

[7] = tested on: MDA-MB-231 cells; assay: SRB cell proliferation assay, MDA-MB-231; type: cell-based; conditions: Homo sapiens, read-out: GI50, MDA-MB-231
Method: as §2

[8] = tested on: HIF-1α and VEGF expression in HCT116 cells; assay: CoCl2-induced HIF-1α / VEGF expression in HCT116 cells (western blot, RT-PCR); type: cell-based, human; conditions: 0.1 μM 24 h, then CoCl2 300 μM 4 h
Method: D. Cells were incubated as explained in (C), the levels of hypoxia-inducible factor-1α (HIF-1α), vascular endothelial growth factor (VEGF) mRNA were measured by RT-PCR.
Total RNA was isolated from cells using TRIzol reagent (Invitrogen). Single-strand cDNA for a polymerase chain reaction (PCR) template was synthesized from 5 μg of total RNA using random primers and Moloney murine leukemia virus reverse transcriptase (Promega). […] Equal amounts (1 μg) of each reverse-transcription product were PCR-amplified using Taq polymerase and 35 cycles of 1 min at 95°C, 1 min at 58°C, and 1 min at 72°C. The amplified cDNA was run on 1% agarose gels and visualized under UV light following staining with SYBR Safe DNA gel stain (Invitrogen).
Cells (1 × 10^6) were incubated for 10 min at 4°C in lysis buffer (20 mM HEPES, pH 7.4, 2 mM EGTA, 50 mM β-glycerophosphate, 0.1% Triton X-100, 10% glycerol, 1 mM DTT, 1 μg/mL of leupeptin, 5 μg/mL of aprotinin, 1 mM phenylmethylsulfonyl fluoride, and 1 mM sodium orthovanadate), were scraped off, incubated on ice for an additional10 min, and centrifuged at 17, 000 g for 30 min at 4°C. Protein samples (80 μg) were then electrophoresed on sodium dodecyl sulfate polyacrylamide gels (SDS-PAGE) and transferred onto a nitrocellulose membrane, which was then blocked by incubation for 30 min at room temperature with 5% fat-free milk in phosphate-buffered saline (PBS). Immunoblotting was performed by overnight incubation at 4°C with primary antibodies in PBS, followed by incubation for 1 h at room temperature with HRP-conjugated secondary antibodies. Bound antibodies were measured using ECL reagent (Advansta Corp., Menlo Park, CA, USA) and exposure to photographic film.

[9] = target: T4, recombinant HDAC6 (Homo sapiens, UniProt Q9UBN7); assay: Inhibition of recombinant HDAC enzyme activity (fluorogenic kit), HDAC6; type: biochemical; conditions: mean ± SEM, read-out: IC50 HDAC6 (Class IIb)
T4 construct: purchased BPS Bioscience Corp
T4 sequence (Q9UBN7 1-1215): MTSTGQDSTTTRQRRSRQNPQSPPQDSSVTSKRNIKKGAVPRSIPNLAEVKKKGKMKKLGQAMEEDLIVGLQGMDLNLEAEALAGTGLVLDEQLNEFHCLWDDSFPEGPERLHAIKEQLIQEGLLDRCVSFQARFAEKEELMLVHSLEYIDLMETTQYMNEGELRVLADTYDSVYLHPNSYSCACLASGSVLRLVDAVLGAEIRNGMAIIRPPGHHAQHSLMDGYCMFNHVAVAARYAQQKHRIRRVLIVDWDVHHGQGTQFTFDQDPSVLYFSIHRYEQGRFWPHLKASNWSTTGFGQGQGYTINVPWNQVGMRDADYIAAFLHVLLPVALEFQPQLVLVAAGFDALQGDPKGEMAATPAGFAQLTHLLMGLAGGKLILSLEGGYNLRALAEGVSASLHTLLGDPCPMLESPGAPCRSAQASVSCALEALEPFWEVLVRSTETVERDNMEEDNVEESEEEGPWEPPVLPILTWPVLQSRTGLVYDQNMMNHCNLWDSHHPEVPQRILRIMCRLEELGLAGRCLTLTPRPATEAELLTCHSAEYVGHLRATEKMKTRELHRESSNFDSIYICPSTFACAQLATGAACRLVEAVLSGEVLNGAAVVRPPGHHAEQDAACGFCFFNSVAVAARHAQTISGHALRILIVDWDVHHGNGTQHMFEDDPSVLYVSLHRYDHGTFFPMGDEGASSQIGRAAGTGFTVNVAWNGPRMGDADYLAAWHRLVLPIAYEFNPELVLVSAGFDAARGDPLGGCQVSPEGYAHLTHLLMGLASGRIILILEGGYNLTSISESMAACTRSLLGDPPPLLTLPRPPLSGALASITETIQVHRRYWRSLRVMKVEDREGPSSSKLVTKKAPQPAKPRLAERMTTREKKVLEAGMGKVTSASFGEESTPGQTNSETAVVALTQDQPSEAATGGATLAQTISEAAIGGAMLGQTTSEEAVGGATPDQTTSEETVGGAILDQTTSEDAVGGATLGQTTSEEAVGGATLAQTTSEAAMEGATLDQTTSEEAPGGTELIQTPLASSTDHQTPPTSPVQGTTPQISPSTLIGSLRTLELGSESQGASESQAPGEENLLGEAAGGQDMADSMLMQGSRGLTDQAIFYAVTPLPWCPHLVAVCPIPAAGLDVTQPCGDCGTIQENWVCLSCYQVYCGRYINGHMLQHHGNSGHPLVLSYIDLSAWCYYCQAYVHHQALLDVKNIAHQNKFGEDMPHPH
Source text: as §1

[10] = target: T5, recombinant HDAC2 (Homo sapiens, UniProt Q92769); assay: Inhibition of recombinant HDAC enzyme activity (fluorogenic kit), HDAC2; type: biochemical; conditions: mean ± SEM, read-out: IC50 HDAC2 (Class I)
T5 construct: purchased BPS Bioscience Corp
T5 sequence (Q92769 whole entry): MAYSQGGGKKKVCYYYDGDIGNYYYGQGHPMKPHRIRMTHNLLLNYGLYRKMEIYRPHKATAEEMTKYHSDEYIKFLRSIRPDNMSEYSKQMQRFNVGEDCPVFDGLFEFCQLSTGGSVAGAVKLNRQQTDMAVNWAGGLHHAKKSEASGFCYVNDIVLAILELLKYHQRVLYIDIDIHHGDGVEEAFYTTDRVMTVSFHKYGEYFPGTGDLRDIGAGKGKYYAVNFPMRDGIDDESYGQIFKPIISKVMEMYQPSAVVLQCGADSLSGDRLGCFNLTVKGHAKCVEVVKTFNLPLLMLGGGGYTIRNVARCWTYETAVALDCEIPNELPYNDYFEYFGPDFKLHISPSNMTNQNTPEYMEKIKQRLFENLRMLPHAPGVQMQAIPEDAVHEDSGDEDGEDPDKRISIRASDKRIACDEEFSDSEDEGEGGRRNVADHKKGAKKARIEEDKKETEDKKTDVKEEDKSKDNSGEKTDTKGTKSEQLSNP
Source text: as §1

[11] = tested on: AsPC-1 cells; assay: SRB cell proliferation assay, AsPC-1; type: cell-based; conditions: Homo sapiens, read-out: GI50, AsPC-1
Method: as §2

[12] = SRB cell proliferation assay, normal bone marrow stromal cells HS-5; type: cell-based; conditions: HS-5 normal bone marrow stromal cells, human normal bone marrow stromal cells
Method: as §2

[13] = tested on: inflammatory factors NO, TNF-α, IL-6, PGE2; parameters: method as in PMID 25113875; conditions: cited from earlier work
[14] = tested on: HDAC (HeLa nuclear extract); parameters: method as in PMID 25113875; conditions: cited from earlier work
[15] = tested on: HCT116 xenograft tumor; assay: HCT116 xenograft model; type: in vivo, nude mice; conditions: 15 mg/kg
Method: Figure 5 The effect of MPT0G157 in HCT116 xenograft model Mice bearing established HCT116 tumors (~100 mm^3) were divided into three group (n = 5) and dosed as Materials and Methods. The tumor volumes A. and body weight B. of mice were measured. Results are mean ± SEM. **p < 0.01 versus control group.
HCT116 cells were implanted subcutaneously into four week old male nude mice. When the tumors reached the average volume of 100 mm^3, the mice were randomly divided into three groups (n = 5) and then were treated with the vehicle (1% carboxymethyl cellulose + 0.5% Tween 80, 0.2 mL/mouse), MPT0G157 (15 mg/kg) by intravenously injection five on two off in the first week and intraperitoneal injection in the other weeks. The length (L) and width (W) of the tumor were measured by caliper every 3 to 4 days, and the tumor volume was calculated as L × W^2/2.

[16] = tested on: matrigel-induced angiogenesis; assay: In vivo matrigel plug angiogenesis assay; parameters: species or system nude mice; conditions: 0.1 and 1 μM in matrigel, seven days, versus control group
Source text: A. After seven days, the animals were sacrificed and the plugs were excised from the mice and photographed. Scale bar represents 0.5 cm. B. Sections of H&E, Masson's trichrome stained and CD31 stained matrigel plugs were examined by light microscopy under 200 × magnification. Scale bar = 100 μm. C. Quantification of the hemoglobin contents of matrigel plugs by spectrophotometer measured at 540 nm. Data represent the mean ± SEM. *p < 0.05 and ***p < 0.001 versus control group.
Six-week-old female nude mice were divided into four groups with three animals in each group. Mice were injected subcutaneously into the abdomens with matrigel (BD Bioscience) mixed with PBS or angiogenic factors (40 ng/ml) with/without MPT0G157 (0.1 μM and 1 μM). After seven days, the animals were sacrificed and the plugs were carefully dissected and photographed, the plugs were performed hematoxylin and eosin (H&E), Masson's trichrome stain and CD31 staining. To quantify the blood vessel formation, hemoglobin content was analyzed by Drabkin's reagent kit (Sigma Chemical, St. Louis, MO).

[17] = target: T6, recombinant HDAC8 (Homo sapiens, UniProt Q9BY41); assay: Inhibition of recombinant HDAC enzyme activity (fluorogenic kit), HDAC8; type: biochemical; conditions: mean ± SEM, read-out: IC50 HDAC8 (Class I)
T6 construct: purchased BPS Bioscience Corp
T6 sequence (Q9BY41 1-377): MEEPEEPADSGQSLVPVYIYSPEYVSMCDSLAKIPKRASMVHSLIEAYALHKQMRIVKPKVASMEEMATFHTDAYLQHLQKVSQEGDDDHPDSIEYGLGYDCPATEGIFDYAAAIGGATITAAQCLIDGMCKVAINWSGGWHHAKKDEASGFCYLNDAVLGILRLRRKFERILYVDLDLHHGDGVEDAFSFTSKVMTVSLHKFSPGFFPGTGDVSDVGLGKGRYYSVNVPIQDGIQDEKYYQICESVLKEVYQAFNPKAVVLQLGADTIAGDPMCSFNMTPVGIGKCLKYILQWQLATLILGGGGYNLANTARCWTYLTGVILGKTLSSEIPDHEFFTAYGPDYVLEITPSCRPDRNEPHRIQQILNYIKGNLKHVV
Source text: as §1

IC50 [1]: 7.69 ± 1.84 nM | IC50 [2]: > 1000 nM | GI50 ([3]; HCT-116, SRB assay, 48 h): 29 ± 2 nM | IC50 [4]: 9.36 ± 0.7 nM | GI50 ([5]; A549, SRB assay, 48 h): 307 ± 36 nM | IC50 ([6]; HCT-116, HCT116 cells treated 24 h): 470 ± 140 nM | GI50 ([7]; MDA-MB-231, SRB assay, 48 h): 47 ± 7 nM | IC50 [9]: 14.3 ± 0.77 nM | IC50 [10]: 5.13 ± 0.67 nM | GI50 ([11]; ASPC1, SRB assay, 48 h): 103 ± 17 nM | IC50 [17]: > 1000 nM
Compound: Cc1[nH]c2ccccc2c1CCNS(=O)(=O)c1ccc(C=CC(=O)NO)cc1 [MPT0G157, N-hydroxy-3-{4-[2-(2-methyl-1H-indol-3-yl)-ethylsulfamoyl]-phenyl}-acrylamide]
CoCl2-induced HIF-1α protein expression ([8]; HCT116): markedly inhibited | CoCl2-induced VEGF mRNA expression ([8]; HCT116, RT-PCR): markedly inhibited | HIF-1α mRNA levels ([8]; HCT116, RT-PCR): did not reduce | GI50 at 48 h [12]: > 100000 nM | suppression of inflammatory factor activities, fold compared with PXD101 [13]: 3.0–25.1 fold | IC50 ([14]; HeLa nuclear extract as the HDAC source, read-out: IC50 for inhibition of HDAC activity): 2.8 ± 0.2 nM | HDAC inhibition, fold compared with PXD101 ([14]; compared with PXD101): 9.4 fold | body weight loss during treatment ([15]; HCT116 xenograft mice): no significant differences in weight loss | percent of tumor growth inhibition (TGI) ([15]; i.v. first week then i.p., nude mice with HCT116 tumors): 50.7% | angiogenic response (hemoglobin content of matrigel plugs) [16]: significantly suppressed the angiogenic response

Compound: O=C(/C=C/c1cccc(S(=O)(=O)Nc2ccccc2)c1)NO [PXD101, reference compound]
IC50 [2]: 161 ± 2.36 nM | GI50 ([3]; HCT-116, 48 h): 90 ± 12 nM | GI50 ([5]; A549, 48 h): > 1000 nM | IC50 ([6]; HCT-116, 24 h): 10300 ± 2250 nM | GI50 ([7]; MDA-MB-231, 48 h): 241 ± 2 nM | IC50 [9]: 80.3 ± 8.69 nM | GI50 ([11]; ASPC1, 48 h): > 1000 nM

GI50 ([3]; HCT-116, 48 h): 411 ± 37 nM | GI50 ([5]; A549, 48 h): > 1000 nM | GI50 ([7]; MDA-MB-231, 48 h): 745 ± 43 nM | GI50 ([11]; ASPC1, 48 h): > 1000 nM
Compound: O=C(CCCCCCC(=O)Nc1ccccc1)NO [SAHA]
